In US20130288956A1, “COMBINED PHARMACEUTICAL COMPOSITION AS ANTIFUNGAL AGENT” (priority 2010, published 2013):

Tests used:
[1] = test system: A. flavus strain IFM50915; test: A. flavus respiratory tract infection model; assay type: in vivo, mice; settings: for Combined effects in mouse Aspergillus flavus infection model: combination with the test compound of the invention
Description: (§1) Female DBA/2N mice (age 8 weeks, Charles River Laboratories Japan, Inc.) were subcutaneously administered 200 mg/kg of 5-fluorouracil 5 or 6 days prior to infection in order to put the mice into a compromised state.
(§2) A. fumigatus strain IFM52108 and A. flavus strain IFM50915 were used.
A liquid containing spores of A. flavus strain IFM50915 stored at −80° C. was thawed, and the number of spores was counted using a hemocytometer followed by diluting with sterile physiological saline containing 0.05% Tween 80 to a concentration of 0.6×10^6 cells/mL to 1.0×10^6 cells/mL to obtain an inoculation fungus liquid.
(§3) 50 μl of inoculation fungus liquid were inoculated into the nasal cavities of 9-week-old mice at 0.3×10^5 cells/mouse to 1.25×10^5 cells/mouse under Ketalar anesthesia.
(§4) 0.1 mL to 0.2 mL of each drug solution (dissolved in sterile physiological saline or 5% glucose solution, or dissolved in sterile physiological saline or 5% glucose solution containing 6.5% dimethylsulfoxide and 3.5% Tween 80) was administered to the individual and combination dose groups either into the peritoneal cavity or into the stomach using a gastric cannula corresponding to the administration route of the drug for 3 to 4 days at the rate of 1 to 2 times per day starting 0.5 hours to 1 hour after inoculation of fungus.
(§5) There were 5 to 9 animals in each group.
(§6) Infection protection results were assessed on survival rate 14 days after infection.

A. fumigatus = test: In vitro combination effects, checkerboard method by micro dilution (FIC index); assay type: cell-based, Aspergillus fumigatus; settings: A. fumigatus (18 strains)
Description: (§7) A clinically isolated strain retained by the Medical Mycology Research Center of Chiba University (Code No. IFM) and a clinically isolated strain retained by the Life Science Research Center of Gifu University (Code No. E) were used as Candida and Aspergillus strains.
(§8) An Aspergillus strain stored frozen at −80° C., or spores obtained by static culturing at 35° C. for 1 week in Potato Dextrose agar medium (PDA, Eiken Chemical Co., Ltd.) followed by scraping from the container with a metal loop, was diluted with RPMI 1640 medium containing 0.165 M MOPS to prepare a fungus liquid having a fungus concentration of 0.75×10^4 cells/mL to 1.33×10^4 cells/mL.
(§9) Test Compound 1 (0.0005 μg/mL to 1.56 μg/mL) in the horizontal rows (12 wells) of a 96-well flat-bottom plate, and an antifungal agent in the form of ravuconazole (0.0015 μg/mL to 6.25 μg/mL), fluconazole (0.008 μg/mL to 32 μg/mL), voriconazole (0.0002 μg/mL to 8 μg/mL), micafungin (0.0005 μg/mL to 0.25 μg/mL), caspofungin (0.0005 μg/mL to 1 μg/mL) or amphotericin B (0.008 μg/mL to 8 μg/mL) in the vertical rows (8 wells) of the flat-bottom plate were prepared by diluting so as to blend together using RPMI 1640 medium containing 0.165 M MOPS to obtain a control group, a single Test Compound 1 group, each one of antifungal agents groups and combination groups of Test Compound 1+each one of antifungal agents.
(§10) The fungus liquids prepared in (1) were inoculated into the wells of 96-well flat-bottom plate containing 20 μL/well to 75 μL/well of the diluted test drug liquids prepared in (2) at 80 μL/well to 125 μL/well, followed by aerobically static culturing for 25 hours to 48 hours at 35° C.
(§11) Combination effects of Test Compound 1 and the antifungal agents were measured with the checkerboard method by micro dilution.
(§12) Interaction between both drugs was assessed by calculating the FIC index using the calculation formula indicated below.
(§13) The FIC index was calculated for each combination of antifungal agent concentrations that inhibited fungal growth, and the minimum value of the resulting FIC index was used as a combination FIC index.
(§14) A combination FIC index of 0.5 or less was evaluated as indicating synergistic action, that of 0.5 to 1 or less was evaluated as indicating additive action, and that of 1 to 4 or less was evaluated as indicating indifferent action.
(§15) FIC Index=(MIC value of drug A during combination use/MIC value of drug A when used alone)+(MIC value of drug B during combination use/MIC value of drug B when used alone) (Calculation Formula)

C. glabrata = test: as above; assay type: cell-based, Candida glabrata; settings: for Ratio indicating Additive effect of combination use with Test Compound 1 / Ratio indicating Antagonistic effect of combination use with Test Compound 1 / Ratio indicating Indifferent effect of combination use with Test Compound 1 / Ratio indicating Synergistic effect of combination use with Test Compound 1: C. glabrata (10 strains)
Description: as §7
(§16) Fungus liquid obtained by static culturing at 35° C. for 48 hours in Sabouraud Dextrose liquid medium (SDB, Becton, Dickinson and Co.) was diluted with RPMI 1640 medium (Nissui Pharmaceutical Co., Ltd.) containing 0.165 M 3-(N-morpholino)propanesulfonic acid (MOPS) to prepare a fungus liquid having a fungus concentration of 1×10^3 cells/mL to 2×10^3 cells/mL.
as §9, §10, §11, §12, §13, §14, §15

C. tropicalis = test: as above; assay type: cell-based, Candida tropicalis; settings: C. tropicalis (10 strains); combination use with Test Compound 1
Description: as §7, §16, §9, §10, §11, §12, §13, §14, §15

A. flavus = test: as above; assay type: cell-based, Aspergillus flavus; settings: A. flavus (4 strains), Table 1
Description: as §7, §8, §9, §10, §11, §12, §13, §14, §15

C. albicans = test: as above; assay type: cell-based, Candida albicans; settings: C. albicans (20 strains); combination use with Test Compound 1
Description: as §7, §16, §9, §10, §11, §12, §13, §14, §15

[2] = test system: A. fumigatus strain IFM52108; test: A. fumigatus respiratory tract infection model; assay type: in vivo, mice
Description: as §1, §2
A liquid containing spores of A. fumigatus strain IFM52108 stored at −80° C. was applied to Potato Dextrose agar medium (PDA, Eiken Chemical Co., Ltd.) followed by static culturing for 5 to 7 days at 35° C. and suspending in sterile physiological saline containing 0.05% Tween 80.
The number of spores was counted using a hemocytometer, and the liquid was diluted with sterile physiological saline containing 0.05% Tween 80 to a concentration of 1.2×10^6 cells/mL to 2.5×10^6 cells/mL to obtain an inoculation fungus liquid.
as §3, §4, §5, §6

| Compound | Combined effects in mouse Aspergillus flavus infection model [1] | Ratio indicating Additive effect of combination use with Test Compound 1 (A. fumigatus) [%] | Ratio indicating Antagonistic effect of combination use with Test Compound 1 (A. fumigatus) [%] | Ratio indicating Indifferent effect of combination use with Test Compound 1 (A. fumigatus) [%] | Ratio indicating Synergistic effect of combination use with Test Compound 1 (A. fumigatus) [%] | Ratio indicating Additive effect of combination use with Test Compound 1 (C. glabrata) [%] | Ratio indicating Antagonistic effect of combination use with Test Compound 1 (C. glabrata) [%] | Ratio indicating Indifferent effect of combination use with Test Compound 1 (C. glabrata) [%] | Ratio indicating Synergistic effect of combination use with Test Compound 1 (C. glabrata) [%] | Ratio indicating Additive effect of combination use with Test Compound 1 (C. tropicalis) [%] | Ratio indicating Antagonistic effect of combination use with Test Compound 1 (C. tropicalis) [%] | Ratio indicating Indifferent effect of combination use with Test Compound 1 (C. tropicalis) [%] | Ratio indicating Synergistic effect of combination use with Test Compound 1 (C. tropicalis) [%] | Ratio indicating Additive effect of combination use with Test Compound 1 (A. flavus) [%] | Ratio indicating Antagonistic effect of combination use with Test Compound 1 (A. flavus) [%] | Ratio indicating Indifferent effect of combination use with Test Compound 1 (A. flavus) [%] | Ratio indicating Additive effect of combination use with Test Compound 1 (C. albicans) [%] | Ratio indicating Antagonistic effect of combination use with Test Compound 1 (C. albicans) [%] | Ratio indicating Indifferent effect of combination use with Test Compound 1 (C. albicans) [%] | Ratio indicating Synergistic effect of combination use with Test Compound 1 (C. albicans) [%] | other results |
| --- | --- | --- | --- | --- | --- | --- | --- | --- | --- | --- | --- | --- | --- | --- | --- | --- | --- | --- | --- | --- | --- |
| CC[C@H](C)C[C@H](C)CCCCCCCCC(=O)N[C@H]1C[C@@H](O)[C@@H](NCCN)NC(=O)[C@@H]2[C@@H](O)CCN2C(=O)[C@H]([C@H](O)CCN)NC(=O)[C@H]([C@H](O)[C@@H](O)c2ccc(O)cc2)NC(=O)[C@@H]2C[C@@H](O)CN2C(=O)[C@H]([C@@H](C)O)NC1=O [Caspofungin, caspofungin] | synergistic combined effects | 22 | 0 | 0 | 78 | 100 | 0 | 0 | 0 | 90 | 0 | 10 | 0 | 25 | 0 | 0 | 85 | 0 | 15 | 0 | 14-day survival rate ([1]; CSFG 0.1 mg/kg, Table 5): 37.5%; 14-day survival rate ([1]; CSFG 0.2 mg/kg, Table 5): 50%; 14-day survival rate ([1]; CSFG 0.25 mg/kg, Table 4): 20%; 14-day survival rate ([1]; CSFG 0.5 mg/kg, Table 4): 60%; Ratio indicating Synergistic effect of combination use with Test Compound 1 (A. flavus): 75% |
| OC(Cn1cncn1)(Cn1cncn1)c1ccc(F)cc1F [Fluconazole, fluconazole] | – | – | – | – | – | 90 | 0 | 10 | 0 | 10 | 0 | 0 | 90 | – | – | – | 80 | 0 | 10 | 10 | – |
| Nc1ncccc1-c1cc(Cc2ccc(COc3ccccn3)cc2)no1 [Test Compound 1, 3-(3-(4-(pyridin-2-yloxymethyl)-benzyl)-isoxazol-5-yl)-pyridin-2-ylamine] | – | – | – | – | – | – | – | – | – | – | – | – | – | – | – | – | – | – | – | – | 14-day survival rate ([1]; Test Compound 1 5 mg/kg, Table 4 AMPH experiment): 20%; 14-day survival rate ([1]; Test Compound 1 5 mg/kg, Table 4 MCFG experiment): 12.5%; 14-day survival rate ([1]; Test Compound 1 5 mg/kg, Table 4 RVCZ experiment): 20%; 14-day survival rate ([1]; Test Compound 1 8 mg/kg, Table 4 CSFG experiment): 0%; 14-day survival rate ([1]; Test Compound 1 10 mg/kg, Table 4 AMPH experiment): 60%; 14-day survival rate ([1]; Test Compound 1 10 mg/kg, Table 4 RVCZ experiment): 60%; 14-day survival rate ([1]; Test Compound 1 16 mg/kg, Table 4 CSFG experiment): 80%; 14-day survival rate ([2]; Test Compound 1 10 mg/kg, Table 3 MCFG experiment): 0%; 14-day survival rate ([2]; Test Compound 1 10 mg/kg, Table 3 RVCZ experiment): 0%; 14-day survival rate ([2]; Test Compound 1 10 mg/kg, Table 3 VRCZ experiment): 40%; 14-day survival rate ([2]; Test Compound 1 20 mg/kg, Table 3 MCFG experiment): 20%; 14-day survival rate ([2]; Test Compound 1 20 mg/kg, Table 3 RVCZ experiment): 20%; 14-day survival rate ([2]; Test Compound 1 20 mg/kg, Table 3 VRCZ experiment): 40% |
| C[C@@H]1[C@H](O)[C@@H](C)/C=C/C=C/C=C/C=C/C=C/C=C/C=C/[C@H](O[C@@H]2O[C@H](C)[C@@H](O)[C@H](N)[C@@H]2O)C[C@@H]2O[C@](O)(C[C@@H](O)C[C@@H](O)[C@H](O)CC[C@@H](O)C[C@@H](O)CC(=O)O[C@H]1C)C[C@H](O)[C@H]2C(=O)O [Amphotericin B, amphotericin B] | synergistic combined effects | 33 | 0 | 67 | 0 | 70 | 0 | 0 | 30 | 90 | 0 | 10 | 0 | 25 | 0 | 75 | 85 | 0 | 10 | 5 | 14-day survival rate ([1]; AMPH 0.5 mg/kg): 20%; 14-day survival rate ([1]; AMPH 1 mg/kg): 0%; Effect of combination use with Test Compound 1 (FIC index evaluation) (C. glabrata; Candida glabrata strain IFM46888, resistant to fluconazole): synergistic (A combination FIC index of 0.5 or less was evaluated as indicating synergistic action); Ratio indicating Synergistic effect of combination use with Test Compound 1 (A. flavus): 0% |
| Nc1c(-c2cc(Cc3ccc(COc4ccccn4)cc3)no2)ccc[n+]1COP(=O)([O-])O [Test Compound 2, 2-amino-1-((phosphonooxy)methyl)-3-(3-((4-((2-pyridinyloxy)methyl)phenyl)methyl)-5-isoxazolyl)-pyridinium] | – | – | – | – | – | – | – | – | – | – | – | – | – | – | – | – | – | – | – | – | 14-day survival rate ([1]; Test Compound 2 2.5 mg/kg, Table 5 CSFG experiment): 0%; 14-day survival rate ([1]; Test Compound 2 5 mg/kg, Table 5 CSFG experiment): 50%; 14-day survival rate ([1]; Test Compound 2 5 mg/kg, Table 5 L-AmB experiment): 0%; 14-day survival rate ([1]; Test Compound 2 5 mg/kg, Table 5 MCFG experiment): 22.2%; 14-day survival rate ([1]; Test Compound 2 10 mg/kg, Table 5 MCFG experiment): 55.6% |
